{
  "source": "paper PMC12948223",
  "about": "“HSP70 Interactome‐Mediated Proteolysis Targeting Chimera (HSP70‐PROTAC) for Ferroptosis‐Driven Cancer Treatment” (Advanced Science, 2025)",
  "key": {"GPX4 [1]": {"target": "T1, GPX4 (Homo sapiens, UniProt P36969)", "T1 construct": "purchased Cayman 26 906", "T1 sequence (P36969 28-197 limits assumed)": "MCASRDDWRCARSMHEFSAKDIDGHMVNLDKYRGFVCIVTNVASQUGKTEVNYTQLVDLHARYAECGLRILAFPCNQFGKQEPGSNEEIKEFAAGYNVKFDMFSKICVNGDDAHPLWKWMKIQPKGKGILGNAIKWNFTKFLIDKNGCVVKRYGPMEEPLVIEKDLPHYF", "test": "SPR binding to GPX4 recombinant protein", "description": "The SPR data was generated by our Shared Instrumentation Core Facility at the Hangzhou Institute of Medicine (HIM), Chinese Academy of Sciences. The in vitro binding affinity of compound GDAz‐3 to recombinant proteins (Hsc70, MedChemExpress, #HY‐P73915A; GPX4, Cayman, Item No. 26 906) was evaluated using a Biacore 8K system (Cytiva (GE)) with the method of LMW multi‐cycle kinetics/affinity. Pipelines and chips were flushed with PBS (pH 7.4) running buffer, and then, human Hsc70 was immobilized on a CM5 sensor chip. Analysis was performed at a flow rate of 30 µL min^−1 at 25 °C with the injection of incremental concentrations of compounds dissolved in buffer solution (the final concentration of DMSO was 5%). For ternary‐complex binding measurements, Hsc70 was immobilized on a CM5 sensor chip, and compound GDAz‐3 at a concentration of 1 µM was preincubated with GPX4. The binding and dissociation durations were recorded as response unit values for 120 and 120 s in succession, respectively. Finally, the data were analyzed by Biacore evaluation software with the method of LMW multi‐cycle kinetics/affinity."}, "HT1080 xenograft tumor": {"system": "HT1080 xenograft tumor", "test": "HT1080 xenograft tumor mouse model, antitumor efficacy and safety", "format": "in vivo", "conditions": "for TGI (tumor growth inhibition): 17 days", "description": "Motivated by the aforementioned in vitro findings, we subsequently sought to evaluate the in vivo antitumor efficacy of GDAz‐3 using an HT1080 xenograft tumor mouse model. The tumor‐bearing mice were randomly divided into six groups, minimizing weight and tumor size differences among the groups (n = 6 in each group). The treatment group mice were administered once daily by intraperitoneal injection (IP) with GDAz‐3 at a dosage of 30 or 60 mg kg^−1, while the control group animals were treated with the corresponding solvent, ML162, and apoptozole at a dosage of 30 mg kg^−1. Additionally, we set up a drug combination group to confirm the superiority of GDAz‐3. After treatment for 17 days, animals were humanely euthanized and the tumors were excised (Figure 7B). […] The advantage of the safety of GDAz‐3 was also determined by the hematoxylin and eosin (H&E) staining. […] In general, compared with the single inhibitor or their combination, the in vivo antitumor study confirmed the efficacy and safety of GDAz‐3.\n(§1) The experimental procedures of the animal experiments were permitted by the Hangzhou Institute of Medicine (HIM), Chinese Academy of Sciences (AP2024‐07‐0010). Male BALB/c nude mice (6 weeks old) were housed under pathogen‐free conditions, maintained at a constant room temperature, and fed standard rodent chow and water. An HT1080 fibrosarcoma xenograft model in nude mice was established through subcutaneous transplantation. When the tumors emerged, the mice were randomly divided into six groups with six mice in each group: GDAz‐3‐treated at 30 or 60 mg kg^−1 group and control groups, including the vehicle group, and each of the two inhibitor‐treated groups (ML162 and apoptozole) at 30 mg kg^−1, and their combinations. The mice were intraperitoneally (IP) injected daily according to their body weight. Body weight and tumor size were measured every other day, and the tumor volume and body weight were recorded every other day after drug treatment. After treatment, the animals were euthanized by cervical dislocation, and the tumor bulks were peeled off and weighed. The organ tissues (tumor, heart, liver, spleen, lung, and kidney) were harvested and fixed with 4% paraformaldehyde for hematoxylin‐eosin (H&E) and immunohistochemistry (IHC) staining. In addition, the expression of GPX4 in tumor samples was analyzed in vehicle‐ and GDAz‐3‐treated groups by western blot assay."}, "Fe2+": {"system": "Fe2+", "test": "Intracellular Fe2+ in HT1080 cells", "format": "cell-based, human", "conditions": "HT1080 cells, 0.1, 0.5 and 1 µM, 24 h", "description": "HT1080 cells were seeded into 10‐cm culture dishes at a density of 2 × 10⁶ cells overnight, and various concentrations of GDAz‐3 (0.1, 0.5, and 1 µM) were added. The cells were digested and collected after treatment with drugs for 24 h. The cells were detected according to the instructions of the Cell Ferrous Iron (Fe^2⁺) Fluorometric Assay Kit (E‐BC‐F101, Elabscience Biotechnology Co., Ltd.). In brief, the cells were washed twice with Reagent 1 working solution in the kit, and then Reagent 2 working solution was added (1 mL per 10⁶ cells). The cells were incubated at 37 °C in the dark for 30–60 min. The samples were centrifuged at 300 × g for 5 min, and the supernatant was discarded. The cells were washed two to three times with Reagent 1 working solution. After resuspending the cells in 0.2–0.5 mL of Reagent 1 working solution, the samples were detected using a fluorescence microplate reader (excitation wavelength: 542 nm, emission wavelength: 575 nm)."}, "GPX4 [2]": {"target": "T2, GPX4 (Homo sapiens, UniProt P36969)", "T2 sequence (P36969 1-170 isoform P36969-2)": "T1 sequence (P36969 28-197 limits assumed)", "test": "GPX4 and 4-HNE in HT1080 xenograft tumor tissue (IHC, western blot)", "format": "in vivo, nude mice", "design": "from tissue; host or cells: HT1080 xenograft tumour tissue from BALB/c nude mice", "excerpt": "In addition, the tumor samples from the six treatment groups were randomly collected and probed for the levels of GPX4, and 4‐HNE (4‐hydroxynonenal, a lipid peroxidation marker) by immunohistochemistry (IHC) staining (Figure 7G). […] Collectively, the HSP70‐PROTAC GDAz‐3 has been confirmed as an effective ferroptosis‐inducing agent, which can degrade GPX4 both in vitro and in vivo via UPS and CMA dual processes.\nas §1, with “[…],” for “GDAz‐3‐treated at 30 or 60 mg kg^−1 group and control groups,”, “The mice were intraperitoneally (IP) injected daily according to their body weight.” left out"}, "[3]": {"conditions": "30 and 60 mg/kg, vs vehicle group"}},
  "data": [
    {"smiles": "COc1ccc(-c2nc(-c3cc(C(F)(F)F)cc(C(F)(F)F)c3)n(Cc3ccc(C(=O)NCCOCCOCCOCCn4cc(COc5ccc(N(C(=O)CCl)C(C(=O)NCCc6ccccc6)c6cccs6)cc5Cl)nn4)cc3)c2-c2ccc(OC)cc2)cc1", "note": "(stereo not drawn) [GDAz-3, 4-((2-(3,5-bis(trifluoromethyl)phenyl)-4,5-bis(4-methoxyphenyl)-1H-imidazol-1-yl)methyl)-N-(2-(2-(2-(2-(4-((2-chloro-4-(2-chloro-N-(2-oxo-2-(phenethylamino)-1-(thiophen-2-yl)ethyl)acetamido)phenoxy)methyl)-1H-1,2,3-triazol-1-yl)ethoxy)ethoxy)ethoxy)ethyl)benzamide]", "values": [
      {"measurement": "Kd", "setting": "GPX4 [1]", "value": 1170, "unit": "nM"},
      {"measurement": "TGI (tumor growth inhibition)", "setting": "HT1080 xenograft tumor; 30 mg/kg IP once daily", "value": 52, "unit": "%"},
      {"measurement": "TGI (tumor growth inhibition)", "setting": "HT1080 xenograft tumor; 60 mg/kg IP once daily", "value": 67, "unit": "%"},
      {"measurement": "Body weight of the mice", "setting": "HT1080 xenograft tumor; 30 or 60 mg/kg IP once daily", "value": "did not obviously reduce the body weight"},
      {"measurement": "H&E staining of major organs (heart, liver, spleen, lung, kidney)", "setting": "HT1080 xenograft tumor; GDAz-3-treated group", "value": "did not observe significant toxic changes in the major organs"},
      {"measurement": "Content of Fe2+", "setting": "Fe2+", "value": "increased"},
      {"measurement": "4-HNE levels in tumor (IHC)", "setting": "GPX4 [2]; [3]", "value": "increase in 4‐HNE levels"},
      {"measurement": "GPX4 levels in tumor (IHC)", "setting": "GPX4 [2]; [3]", "value": "reduction in GPX4 levels"},
      {"measurement": "GPX4 protein in HT1080 tumor tissue (western blot)", "setting": "GPX4 [2]; single IP injection 50 mg/kg", "value": "reduce the level of GPX4 protein over the vehicle control at the 12, 24, and 36 h time points"}
    ]}
  ]
}
